Key:
Format in all cases: functional
[1] = test system: Plasmodium berghei; assay: In vivo activity after 13 days against chloroquine-sensitive Plasmodium berghei infected mice (Mus musculus) at 100 mg/kg intraperitoneal dose over 4 days
[2] = test system: Plasmodium berghei; assay: Parasitaemia at day 11 after combination dose at 50 mg/kg/day with 15 mg/kg/day […] over 4 days
[3] = test system: Plasmodium berghei; assay: Parasitemia at day 13 after combination dose at 50 mg/kg/day with 15 mg/kg/day […] over 4 days
[4] = test system: Plasmodium berghei; assay: Parasitaemia at day 15 after combination dose at 50 mg/kg/day with 15 mg/kg/day […] over 4 days
[5] = test system: Plasmodium berghei; assay: Parasitaemia at day 17 after combination dose at 50 mg/kg/day with 15 mg/kg/day […] over 4 days
[6] = test system: Plasmodium berghei; assay: Parasitemia at day 5 after combination dose at 50 mg/kg/day with 15 mg/kg/day […] over 4 days
[7] = test system: Plasmodium berghei; assay: Parasitaemia at day 7 after combination dose at 50 mg/kg/day with 15 mg/kg/day […] over 4 days
[8] = test system: Plasmodium berghei; assay: Parasitaemia at day 9 after combination dose at 50 mg/kg/day with 15 mg/kg/day […] over 4 days
[9] = test system: Plasmodium berghei; assay: Parasitaemia at day 11 after 50 mg/kg/day dose over 4 days
[10] = test system: Plasmodium berghei; assay: Parasitaemia at day 13 after 50 mg/kg/day dose over 4 days
[11] = test system: Plasmodium berghei; assay: Parasitaemia at day 5 after 50 mg/kg/day dose over 4 days
[12] = test system: Plasmodium berghei; assay: Parasitemia at day 7 after 50 mg/kg/day dose over 4 days
[13] = test system: Plasmodium berghei; assay: Parasitemia at day 9 after 50 mg/kg/day dose over 4 days
[14] = test system: Plasmodium berghei; assay: In vivo activity after 11 days against chloroquine-sensitive Plasmodium berghei infected mice (Mus musculus) at 100 mg/kg intraperitoneal dose over 4 days
[15] = test system: Plasmodium berghei; assay: In vivo activity at day 5 against chloroquine-sensitive Plasmodium berghei infected mice (Mus musculus) at 100 mg/kg intraperitoneal dose over 4 days
[16] = test system: Plasmodium berghei; assay: In vivo activity at day 7 against chloroquine-sensitive Plasmodium berghei infected mice (Mus musculus) at 100 mg/kg intraperitoneal dose over 4 days
[17] = test system: Plasmodium berghei; assay: In vivo activity at day 9 against chloroquine-sensitive Plasmodium berghei infected mice (Mus musculus) at 100 mg/kg intraperitoneal dose over 4 days
[18] = test system: Plasmodium berghei; assay: Parasitemia at day 15 after 50 mg/kg/day dose over 4 days
[19] = test system: Plasmodium berghei; assay: In vivo activity after 15 days against chloroquine-sensitive Plasmodium berghei infected mice (Mus musculus) at 100 mg/kg intraperitoneal dose over 4 days
[20] = test system: Plasmodium berghei; assay: Parasitemia at day 17 after 50 mg/kg/day dose over 4 days
[21] = test system: Plasmodium berghei; assay: Parasitaemia at day 19 after combination dose at 50 mg/kg/day with 15 mg/kg/day […] over 4 days

| Structure (SMILES) | Parasitaemia [1] | Parasitaemia [2] | Parasitaemia [3] | Parasitaemia [4] | Parasitaemia [5] | Parasitaemia [6] | Parasitaemia [7] | Parasitaemia [8] | Parasitaemia [9] | Parasitaemia [10] | Parasitaemia [11] | Parasitaemia [12] | Parasitaemia [13] | Parasitaemia [14] | Parasitaemia [15] | Parasitaemia [16] | Parasitaemia [17] | Parasitaemia [18] | Parasitaemia [19] | other results |
| --- | --- | --- | --- | --- | --- | --- | --- | --- | --- | --- | --- | --- | --- | --- | --- | --- | --- | --- | --- | --- |
| COc1ccc(/C=C/C(=O)c2ccc(OCCCCCCOc3ccc(C(=O)/C=C/c4ccc(OC)c(OC)c4)cc3)cc2)cc1OC | 3.1% | 2.3% | 6% | 7.5% | 11% | 0% | 0.06% | 1.8% | 4.3% | 7.3% | 0.8% | 1.6% | 2% | 2.1% | 0% | 0.16% | 1.3% | 15% | 4.25% | – |
| COc1ccc(/C=C/C(=O)c2ccc(OCCCOc3ccc(C(=O)/C=C/c4ccc(OC)cc4OC)cc3)cc2)c(OC)c1 | – | 7.7% | 9.5% | 13.7% | 18% | 1.2% | 2.3% | 3.76% | 8.4% | 10% | 1.3% | 2.2% | 4.8% | – | 3.2% | 4.7% | 8% | 12.5% | – | Parasitaemia [20]: 16% |
| COc1ccc(/C=C/C(=O)c2ccc(OCOc3ccc(C(=O)/C=C/c4ccc(OC)cc4OC)cc3)cc2)c(OC)c1 | – | – | – | – | – | – | – | – | – | – | – | – | – | – | 3.4% | 5% | 2% | – | – | – |
| COc1cccc(/C=C/C(=O)c2ccc(OCCCCCCOc3ccc(C(=O)/C=C/c4cccc(OC)c4)cc3)cc2)c1 | – | 2% | 3.6% | 6.6% | 11.5% | 0% | 0% | 0.14% | 9.5% | 13% | 1.8% | 3.2% | 7.9% | 11% | 2.1% | 3.4% | 6.8% | – | – | – |
| COc1ccc(/C=C/C(=O)c2ccc(OCOc3ccc(C(=O)/C=C/c4ccc(OC)c(OC)c4)cc3)cc2)cc1OC | – | 0.8% | 1.4% | 4.4% | 11.6% | 0% | 0% | 0.3% | 10.2% | 14.3% | 1.5% | 2.3% | 5.8% | – | 2.8% | 5.6% | 7.25% | – | – | Parasitaemia [21]: 22.6% |
| COc1cccc(/C=C/C(=O)c2ccc(OCCCOc3ccc(C(=O)/C=C/c4cccc(OC)c4)cc3)cc2)c1 | 1.81% | 3% | 4.6% | 7% | 9.5% | 0.08% | 1.1% | 3% | 4.2% | 5.4% | 1.75% | 1.9% | 4.2% | 1.8% | 0% | 0.52% | 1% | 13% | 1.7% | Parasitaemia [21]: 13%; Parasitaemia [20]: 19% |
| COc1ccc(/C=C/C(=O)c2ccc(OCCCCOc3ccc(C(=O)/C=C/c4ccc(OC)cc4OC)cc3)cc2)c(OC)c1 | 6.6% | 4.9% | 7.5% | 13% | 18% | 0.2% | 0.6% | 4% | 8% | 7.2% | 2.6% | 3.5% | 3.4% | 5.2% | 1.5% | 2% | 2.4% | 8.3% | 9.5% | – |
| CC(=O)c1ccc(OCCCCCCOc2ccc(C(=O)/C=C/c3ccc4c(c3)OCO4)cc2)cc1 | – | 3.2% | 5.5% | 8% | – | 0.02% | 2% | 3.2% | 6.5% | 9% | 2.2% | 3.2% | 4.8% | 6.3% | 1% | 2.1% | 4% | 10% | – | – |
| COc1ccc(/C=C/C(=O)c2ccc(OCCCOc3ccc(C(=O)/C=C/c4ccc(OC)c(OC)c4)cc3)cc2)cc1OC | 1.5% | 7.6% | 12.2% | 18% | 24% | 0% | 1.3% | 1.9% | 5% | 10.4% | 0.74% | 2.4% | 2% | 0.9% | 0.01% | 0.05% | 0.6% | – | 3% | – |
| CC(=O)c1ccc(OCCCOc2ccc(C(=O)/C=C/c3ccc4c(c3)OCO4)cc2)cc1 | 3% | 3% | 5.1% | 7% | 13% | 0% | 0.04% | 1.96% | 6.7% | 7.8% | 0.7% | 1.8% | 2.2% | 2.75% | 0% | 0.35% | 1.7% | 11.5% | 3.85% | – |
| COc1ccc(/C=C/C(=O)c2ccc(OCCCCOc3ccc(C(=O)/C=C/c4ccc(OC)c(OC)c4)cc3)cc2)cc1OC | 1.5% | 2.7% | 7.5% | – | – | 0.002% | 0.3% | 1.8% | 5% | 6.9% | 1.2% | 2.5% | 2.5% | 1% | 0% | 0% | 0.7% | 13.2% | 2% | – |
| COc1cccc(/C=C/C(=O)c2ccc(OCCCCOc3ccc(C(=O)/C=C/c4cccc(OC)c4)cc3)cc2)c1 | 19% | 5% | 7.5% | 10% | 16% | 0.8% | 3.2% | 2.9% | 6.6% | 10.8% | 1.9% | 2.1% | 5.7% | 6.4% | 1.5% | 2% | 3.9% | 13.3% | – | – |
